Consider 22 molecules from ChEMBL document CHEMBL1133574, “alpha-Substituted N-(sulfonamido)alkyl-beta-aminotetralins: potent and selective neuropeptide Y Y5 receptor antagonists” (J Med Chem, 2000).

For orientation: IC50 means the point on the concentration scale where inhibition reaches its midpoint.

The target of this test is T1, Neuropeptide Y receptor type 5 (Homo sapiens, UniProt Q15761).
T1 sequence (Q15761 whole entry): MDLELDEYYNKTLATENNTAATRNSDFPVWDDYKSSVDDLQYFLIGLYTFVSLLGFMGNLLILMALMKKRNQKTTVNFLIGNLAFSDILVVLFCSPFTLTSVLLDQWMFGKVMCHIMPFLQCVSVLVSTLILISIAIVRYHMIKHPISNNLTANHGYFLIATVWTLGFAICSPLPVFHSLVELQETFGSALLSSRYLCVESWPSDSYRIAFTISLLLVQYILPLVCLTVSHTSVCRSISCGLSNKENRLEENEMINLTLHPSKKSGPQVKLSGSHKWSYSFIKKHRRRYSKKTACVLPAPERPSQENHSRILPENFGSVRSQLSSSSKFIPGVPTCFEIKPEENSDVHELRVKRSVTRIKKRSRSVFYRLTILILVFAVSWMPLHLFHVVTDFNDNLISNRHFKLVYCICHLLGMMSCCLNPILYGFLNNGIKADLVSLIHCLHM
Nature of the test: Inhibition of [125I]-PYY binding to recombinant NPY Y5 receptor on HEK293 cell membranes. Format: cell-based.

For the molecule `O=C(CN1CCC(NS(=O)(=O)c2ccccc2)CC1)NC1CCc2cc(F)ccc2C1Cc1cccnc1` (configuration not stated), the IC50 is 10 nM.

Consider `COc1ccc2c(c1)CCC(NCCCCCCNS(=O)(=O)c1ccccc1)C2Cc1cccnc1` (configuration not stated), for which the IC50 turned out to be 53 nM.

For `O=C(CN1CC[C@@H](NS(=O)(=O)c2ccccc2)C1)NC1CCc2cc(F)ccc2C1Cc1cccnc1` (some centres not stated), the IC50 was 27 nM.

With `C=CCC1c2ccc(F)cc2CCC1NC(=O)[C@H]1CC[C@H](CNS(=O)(=O)c2ccccc2)CC1` (some centres not stated), the IC50 was 75 nM.

For the molecule `O=S(=O)(NC[C@H]1CC[C@H](CNC2CCc3cc(O)ccc3C2Cc2cccnc2)CC1)c1ccccc1F` (some centres not stated), the concentration for half-maximal inhibition (IC50) is 7 nM.

With `COc1ccc2c(c1)CCC(NC[C@H]1CC[C@H](CNS(=O)(=O)c3ccccc3F)CC1)C2Cc1cccnc1` (some centres not stated), the IC50 is 23 nM.

`COc1ccc2c(c1)CCC(NC(=O)[C@H]1CC[C@H](CNS(=O)(=O)c3ccccc3F)CC1)C2Cc1cccnc1` (some centres not stated): the IC50 was 11 nM.

Consider `COc1ccc2c(c1)CCC(NC[C@H]1CC[C@H](CNS(=O)(=O)c3ccc4ccccc4c3)CC1)C2Cc1ccccc1` (some centres not stated), for which the IC50 amounted to 443 nM.

With `COc1ccc2c(c1)CCC(NC[C@H]1CC[C@H](CNS(=O)(=O)c3ccc4ccccc4c3)CC1)C2Cc1cccnc1` (some centres not stated), the IC50 is 337 nM.

Turning to `O=C(NC1CCc2cc(F)ccc2C1Cc1cccnc1)[C@H]1CC[C@H](CNS(=O)(=O)c2ccccc2)CC1` (some centres not stated), the IC50 worked out at 40 nM.

In the case of `COc1ccc2c(c1)CCC(NC(=O)[C@H]1CC[C@H](CNS(=O)(=O)c3ccccc3)CC1)C2Cc1cccnc1` (some centres not stated), the concentration for half-maximal inhibition (IC50) came to 11 nM.

On to `O=S(=O)(NC[C@H]1CC[C@H](CNC2CCc3cc(F)ccc3C2Cc2cccnc2)CC1)c1ccccc1F` (some centres not stated), for which the IC50 amounted to 19 nM.

In the case of `O=S(=O)(NC[C@H]1CC[C@H](CNC2CCc3cc(F)ccc3C2Cc2cccnc2)CC1)c1ccccc1` (some centres not stated), the IC50 worked out at 27 nM.

With `C=CCC1c2ccc(O)cc2CCC1NC[C@H]1CC[C@H](CNS(=O)(=O)c2ccccc2)CC1` (some centres not stated), the IC50 amounted to 5 nM.

Take `C=CCC1c2ccc(F)cc2CCC1NC[C@H]1CC[C@H](CNS(=O)(=O)c2ccccc2)CC1` (some centres not stated): the IC50 amounted to 21 nM.

As to `COc1ccc2c(c1)CCC(NC[C@H]1CC[C@H](CNS(=O)(=O)c3ccccc3)CC1)C2Cc1cccnc1` (some centres not stated), the IC50 was found to be 10 nM.

For the molecule `O=C(NC1CCc2cc(F)ccc2C1Cc1cccnc1)[C@H]1CC[C@H](CNS(=O)(=O)c2ccccc2F)CC1` (some centres not stated), the IC50 worked out at 12 nM.

Consider `O=C(CN1CC[C@H](NS(=O)(=O)c2ccccc2)C1)NC1CCc2cc(F)ccc2C1Cc1cccnc1` (some centres not stated), for which the IC50 was 5 nM.

Regarding `N[C@@H](CCCCNS(=O)(=O)c1ccccc1F)C(=O)NC1CCc2cc(F)ccc2C1Cc1cccnc1` (some centres not stated), the IC50 stood at 22 nM.

With `N[C@@H](CCCCNS(=O)(=O)c1ccccc1F)CNC1CCc2cc(O)ccc2C1Cc1cccnc1` (some centres not stated), the IC50 was found to be 1 nM.

With `O=C(CN1CCC(NS(=O)(=O)c2ccccc2)C1)NC1CCc2cc(F)ccc2C1Cc1cccnc1` (configuration not stated), the IC50 amounted to 11 nM.

Consider `COc1ccc2c(c1)CCC(NCCc1ccc(OC)c(OC)c1)C2Cc1ccccc1` (configuration not stated), for which the IC50 amounted to 900 nM.
